Laboratory results from patent US6172185A, “Antimicrobial cationic peptide derivatives of bactenecin” (priority 1998, dated 2001).
Where a SMILES comes first, the peptide text is derived from it. Where no end group is shown, it is not given here.

Legend:
[1] = test system: rat embryonic neurons, fetal rat astrocytes and human glioblastoma cells; conditions: cited from earlier work
E. coli DC2 = assay type: cell-based, Escherichia coli; conditions: E. coli DC2, 0.1M KCl
Experimental: The minimal inhibitory concentration (MIC) of peptides was determined by a modified two-fold microtitre broth dilution method modified from that of Steinberg et al (Steinberg, Antimicrob. Agents Chemother. 41:1738, 1997). Using the classical method (Amsterdam, Antibiotics in Laboratory Medicine (Lorian, V., ed) pp. 72-78, 1991), higher concentrations of peptides tend to precipitate in the LB broth, thus the concentrations of peptides in the sequential wells are not accurate. Also the peptides stick to the most readily available (tissue-culture treated polystyrene) 96-well microtitre plates. Therefore the 2× series of dilutions was performed in Eppendoff tubes (polypropylene) before mixing with LB broth. Serial of two fold dilutions of peptides ranging from 640 μg/ml to 1.25 μg/ml were made in 0.2% BSA, 0.01% acetic acid buffer in the Eppendoff tubes. Ten μl of each concentration was added to each corresponding well of a 96-well microtiter plate (polypropylene cluster; Costar Corporation, Cambridge, Mass.). Bacteria were grown overnight and diluted 10-5 into fresh LB broth or Todd Hewitt broth for Streptococcus. LB medium contained 10 g/1l tryptone and 5 g/yeast extract, with no salt. Todd Hewitt contained 500 g/l beef heart infusion, 20 g/l bacto neopeptone, 2 g/l bacto dextrose, 2 g/l sodium chloride, 0.4 g/l disodium phosphate, 2.5 g/l sodium carbonate. One hundred […] containing about 10^4-10^5 CFU/ml of tested bacteria was added to each well. […]
It has been proposed that the antibacterial target of cationic peptides be at the cytoplasmic membrane. […] Once inside the cells, diS-C3-(5) becomes concentrated and self-quenches its own fluorescence. If peptides form channels or otherwise disrupt the membrane, the membrane potential will be dissipated, and the DiS-C3-(5) will be released into the medium causing the fluorescence to increase, as can be detected by fluorescent spectrometry. […] Therefore the MICs of bactenecin, reduced bactenecin and bac2S in the presence of 0.1M KCl were determined and shown to be 8-16 μg/ml (i.e. 4 to 8 fold higher than in low salt). […]

Strep. pyogenes = experiment: MIC, modified two-fold microtitre broth dilution; assay type: cell-based, Streptococcus pyogenes; conditions: for MIC Strep. pyogeness: Table IID, linear (Group 2): reduced forms of the peptides, Bac (Oxidized) as comparator; for MIC Strep. pyogenes: Table IVB, non-linear hydrophobicity modification derivatives
Source text: (§1) Bacterial strains for antimicrobial activity testing included Escherichia coli UB1005 and its antibiotic supersusceptible derivative DC2 (Richmond et al., Antimicrob. Agents Chemother. 10:215, 1976), Pseudomonas aeruginosa K799 and its antibiotic-supersusceptible derivative Z61 (Angus et al., Antimicrob. Agents Chemother. 21:299, 1982), Salmonella typhimurium 14028s and its defensin-supersusceptible derivative MS7953s (Fields et al., Science, 243:1059, 1989), Staphylococcus aureus ATCC25923 and a clinical isolate Staphylococcus aureus SAP1007. Other Gram-positive bacterial strains include Staphylococcus epidermidis (clinical isolate) and Enterococcus faecalis ATCC29212, Listeria monocytogenes, Corynebacterium xerosis, Streptococcus pneumoniae ATTC49619, Streptococcus pyogenes ATTC19615, Streptococcus mitis.
(§2) The minimal inhibitory concentration (MIC) of peptides was determined by a modified two-fold microtitre broth dilution method modified from that of Steinberg et al (Steinberg, Antimicrob. Agents Chemother. 41:1738, 1997). Using the classical method (Amsterdam, Antibiotics in Laboratory Medicine (Lorian, V., ed) pp. 72-78, 1991), higher concentrations of peptides tend to precipitate in the LB broth, thus the concentrations of peptides in the sequential wells are not accurate. Also the peptides stick to the most readily available (tissue-culture treated polystyrene) 96-well microtitre plates. Therefore the 2× series of dilutions was performed in Eppendoff tubes (polypropylene) before mixing with LB broth. Serial of two fold dilutions of peptides ranging from 640 μg/ml to 1.25 μg/ml were made in 0.2% BSA, 0.01% acetic acid buffer in the Eppendoff tubes. Ten μl of each concentration was added to each corresponding well of a 96-well microtiter plate (polypropylene cluster; Costar Corporation, Cambridge, Mass.). Bacteria were grown overnight and diluted 10-5 into fresh LB broth or Todd Hewitt broth for Streptococcus. LB medium contained 10 g/1l tryptone and 5 g/yeast extract, with no salt. Todd Hewitt contained 500 g/l beef heart infusion, 20 g/l bacto neopeptone, 2 g/l bacto dextrose, 2 g/l sodium chloride, 0.4 g/l disodium phosphate, 2.5 g/l sodium carbonate. One hundred […] containing about 10^4-10^5 CFU/ml of tested bacteria was added to each well. The plate was incubated at 37° C. overnight. The MIC was taken as the concentration at which greater than 90% of growth inhibition was observed.

E.coli UB1005 = experiment: MIC, modified two-fold microtitre broth dilution; assay type: cell-based, Escherichia coli
Source text: as §1, §2

Staph. epidermidis = experiment: MIC, modified two-fold microtitre broth dilution; assay type: cell-based, Staphylococcus epidermidis
Source text: as §1, §2

C. xerosis = experiment: MIC, modified two-fold microtitre broth dilution; assay type: cell-based, Corynebacterium xerosis
Source text: as §1, §2

Strep. mitis = experiment: MIC, modified two-fold microtitre broth dilution; assay type: cell-based, Streptococcus mitis; conditions: for MIC Strep. mitis: Table IID, linear (Group 2): reduced forms of the peptides, Bac (Oxidized) as comparator; for MIC S. mitis: Table IVB, non-linear hydrophobicity modification derivatives
Source text: as §1, §2

S.typhimurium = experiment: MIC, modified two-fold microtitre broth dilution; assay type: cell-based, Salmonella typhimurium
Source text: as §1, §2

Staph. aureus = experiment: MIC, modified two-fold microtitre broth dilution; assay type: cell-based, Staphylococcus aureus
Source text: as §1, §2

Listeria monocytogenes = experiment: MIC, modified two-fold microtitre broth dilution; assay type: cell-based
Source text: as §1, §2

P.aeruginosa = experiment: MIC, modified two-fold microtitre broth dilution; assay type: cell-based, Pseudomonas aeruginosa
Source text: as §1, §2

E.facaelis = experiment: MIC, modified two-fold microtitre broth dilution; assay type: cell-based, Enterococcus faecalis
Source text: as §1, §2

Strep. pneumoniae = experiment: MIC, modified two-fold microtitre broth dilution; assay type: cell-based, Streptococcus pneumoniae; conditions: for MIC Strep. pneumonia: Table IID, linear (Group 2): reduced forms of the peptides, Bac (Oxidized) as comparator; for MIC S. pneumoniae: Table IVB, non-linear hydrophobicity modification derivatives
Source text: as §1, §2

E. coli UB1005 = experiment: Outer membrane permeabilization, NPN uptake assay; assay type: cell-based, Escherichia coli; conditions: FIG. 3
Experimental: Mid-log phase E. coli cells were collected and incubated with NPN in the presence of various concentrations of bactenecin (oxidized), bac2S, bactenecin (reduced). NPN was taken up into cells when the outer membrane was disrupted by the peptides. The uptake of NPN was measured by the increase of fluorescence. Polymyxin B: -.quadrature.-; Bactenecin: -+-; Bac2S: -o-; Bactenecin (Reduced): -.gradient.-
The ability of peptides to permeabilize the outer membrane was determined by the NPN assay of Loh et al. (Loh et al., Antimicrob. Agents Chemother. 19:777, 1984). Cytoplasmic membrane permeabilization was determined by using the membrane potential sensitive cyanine dye DiS-C3-(5) (Sims et al., Biochemistry 13:3315, 1974). […] The cell suspension was incubated with […] DiS-C3-(5) until DiS-C3-(5) uptake was maximal (as indicated by a stable reduction in fluorescence due to fluorescence quenching as the dye became concentrated in the cell by the membrane potential), and 100 mM KCl was added to equilibrate the cytoplasmic and external K+ concentration. […] The fluorescence reading was monitored by using a Perkin-Elmer model 650-10 S fluorescence spectrophotometer (Perkin-Elmer Corp. Norwalk, Conn.), with an excitation wavelength of 622 nm and an emission wavelength of 670 nm. […]

[2] = Table IIC, linear (Group 2): reduced forms of the peptides, Bac (Oxidized) as comparator
[3] = Table IVA, non-linear hydrophobicity modification derivatives
[4] = Table IID, linear (Group 2): reduced forms of the peptides, Bac (Oxidized) as comparator
[5] = Table IVB, non-linear hydrophobicity modification derivatives

Row | Compound | MIC in the presence of 0.1M KCl (E. coli DC2) [µg/mL] | Minimal Agglutinating Concentration, Oxidized Form (Human Red Blood Cells) [µg/mL] | MIC Strep. pyogeness (Strep. pyogenes) [µg/mL] | MIC Strep. pyogenes (Strep. pyogenes) [µg/mL] | MIC E.coli UB1005 (E.coli UB1005; [2]) [µg/mL] | MIC E.coli UB1005 (E.coli UB1005; [3]) [µg/mL] | MIC Staph. epidermidis (Staph. epidermidis; [4]) [µg/mL] | MIC Staph. epidermidis (Staph. epidermidis; [5]) [µg/mL] | MIC C. xerosis (C. xerosis; [4]) [µg/mL] | MIC C. xerosis (C. xerosis; [5]) [µg/mL] | MIC Strep. mitis (Strep. mitis) [µg/mL] | MIC S. mitis (Strep. mitis) [µg/mL] | MIC S. typhimurium (S.typhimurium; [2]) [µg/mL] | MIC S. typhimurium (S.typhimurium; [3]) [µg/mL] | MIC Staph. aureus (Staph. aureus; [4]) [µg/mL] | MIC Staph. aureus (Staph. aureus; [5]) [µg/mL] | MIC Listeria (Listeria monocytogenes; [4]) [µg/mL] | MIC Listeria (Listeria monocytogenes; [5]) [µg/mL] | MIC P. aeruginosa (P.aeruginosa; [2]) [µg/mL] | MIC P. aeruginosa (P.aeruginosa; [3]) [µg/mL] | other results
1 | CC[C@H](C)[C@@H]1NC(=O)[C@H](CCCNC(=N)N)NC(=O)[C@@H](NC(=O)[C@H](CC(C)C)NC(=O)[C@@H](N)CCCNC(=N)N)CSSC[C@@H](C(=O)N[C@@H](CCCNC(=N)N)C(=O)O)NC(=O)[C@H](C(C)C)NC(=O)[C@H](CCCNC(=N)N)NC(=O)[C@H]([C@@H](C)CC)NC(=O)[C@H](C(C)C)NC(=O)[C@H](C(C)C)NC1=O [Bactenecin, RLCRIVVIRVCR] (HELM PEPTIDE1{R.L.C.R.I.V.V.I.R.V.C.R}$PEPTIDE1,PEPTIDE1,3:R3-11:R3$$$V2.0) | 8 to 16 | 64 |  |  |  |  |  |  |  |  |  |  |  |  |  |  |  |  |  |  | cytotoxicity [1]: strongly cytotoxic
2 | RLSRIVVIRVSR [Bac 2S, RLSRIVVIRVSR] | 8 to 16 | > 64 |  |  |  |  |  |  |  |  |  |  |  |  |  |  |  |  |  |  | 
3 | RLCRIVPVIRVCR [Bac P, tested oxidized and reduced] |  | 64 | 32 | 64 | 16 | 32 | 16 | 64 | 2 | 8 | 2 | 4 | 64 | > 64 | > 64 | 64 | 4 | 2 | 32 | > 64 | MIC E.facaelis (E.facaelis; [4]): 32 µg/mL; MIC E.facaelis (E.facaelis; [5]): > 64 µg/mL; Minimal Agglutinating Concentration, Reduced Form (Human Red Blood Cells): 64 µg/mL; MIC Strep. pneumonia (Strep. pneumoniae): > 64 µg/mL; MIC S. pneumoniae (Strep. pneumoniae): > 64 µg/mL
4 | CC[C@H](C)[C@H](NC(=O)[C@H](CCCNC(=N)N)NC(=O)[C@H](CS)NC(=O)[C@H](CC(C)C)NC(=O)[C@@H](N)CCCNC(=N)N)C(=O)N[C@H](C(=O)N[C@H](C(=O)N[C@H](C(=O)N[C@@H](CCCNC(=N)N)C(=O)N[C@H](C(=O)N[C@@H](CS)C(=O)N[C@@H](CCCNC(=N)N)C(=O)O)C(C)C)[C@@H](C)CC)C(C)C)C(C)C [Bac (Reduced), RLCRIVVIRVCR] (H-RLCRIVVIRVCR-OH) | 8 to 16 | 16 |  |  |  |  |  |  |  |  |  |  |  |  |  |  |  |  |  |  | concentration causing agglutination of human red blood cells (Human Red Blood Cells): 16000 to 32000 ng/mL
5 | Polymyxin B |  |  |  |  |  |  |  |  |  |  |  |  |  |  |  |  |  |  |  |  | concentration permeabilizing the outer membrane to 50% of maximal increase in fluorescence (NPN) (E. coli UB1005): 0.4 mg/mL
6 | RLCRIVWVIRVCR [Bac W, tested oxidized and reduced] |  | 32 | 16 | 2 | > 64 | 8 | 32 | 2 | 1 | 1 | 1 | 1 | 64 | 4 | > 64 | 4 | 2 | 0.5 | > 64 | 4 | MIC E.facaelis (E.facaelis; [4]): 32 µg/mL; MIC E.facaelis (E.facaelis; [5]): 8 µg/mL; Minimal Agglutinating Concentration, Reduced Form (Human Red Blood Cells): 4 µg/mL; MIC Strep. pneumonia (Strep. pneumoniae): 32 µg/mL; MIC S. pneumoniae (Strep. pneumoniae): 16 µg/mL
